Entries after “also recorded” stand apart in the source; their conditions may differ.
Columns and labels:
[1] = target: FASN (Mus musculus, UniProt P19096); conditions: in vivo; cited from earlier work
[2] = target: T1, LDHA (Homo sapiens, UniProt P00338); assay: Global enzyme activity analysis (ATP/ADP probe, LC-MS/MS) in HepG2; assay type: cell-based; conditions: HepG2, Sorafenib 1 μM, 24 hours
T1 construct: endogenous in cells; host or cells: HepG2
Source text: (§1) Multikinase inhibitor Sorafenib, a first line chemotherapeutic agent for the advanced HCC patients, was used to probe the role of global kinase activity and protein phosphorylation changes associated with this treatment. The HepG2 (ATCC Ascension No. HB-8065) cell line was selected to model HCC cells and the THLE2 (ATCC Ascension No. CRL-10149) cell line was selected to model normal hepatic cells.
(§2) FIG. 41B illustrates a method for global enzyme (e.g., kinase) enrichment profiling. First, a cell lysate including the targeted enzyme (e.g., kinase) is parepared. The second step is probe binding (e.g., an ATP probe in the case of kinase). Theny the enzyme is digested and brobe-bound fragments are captured. These fragments can be analyzed (e.g., by LC-MS/MS) and the corresponding protein thus identified (e.g., via a database search of the LC-Ms/MS data).
(§3) THERMO SCIENTIFIC© PIERCE® Kinase Enrichment Kits and ACTIVX© probes (instructions available from THERMO SCIENTIFIC© and PIERCE® Biotechnology www.thermoscientific.com/pierce) were used for global enzyme activity analysis. Briefly, these and similar kits enable selective labeling and enrichment of ATPases including kinases, chaperones and metabolic enzymes. ATP and ADP Probes are generally nucleotide derivatives, which covalently modify the active site of enzymes with conserved lysine residues in the nucleotide-binding site. For example, the structure of desthiobiotin-ATP and -ADP consists of a modified biotin attached to the nucleotide by a labile acyl-phosphate bond. Depending on the position of the lysine within the enzyme active site, either desthiobiotin-ATP or -ADP can be preferred for labeling specific ATPases.
(§4) The cells were cultured according to the following protocol. Day 1: HepG2/Hep3B—seed 3.2×10^6 cells in T-75 culture flasks; 7.4×10^6 cells in T-175 culture flasks; or 9.5×10^6 cells in T-225 culture flasks. THLE-2—seed 1.3×10^6 cells in T-75 culture flasks. Day 2: 16-24 hours later, at 50-70% confluence—add treatment. Control: DMSO at final concentration of 0.01%. EGF: 500 ng/mL in 10 mM acetic acid. […]

[3] = target: T2, PGK1 (Homo sapiens, UniProt P00558); assay: as above; assay type: cell-based; conditions: HepG2, Sorafenib 1 μM, 24 hours
T2 construct: endogenous in cells; host or cells: HepG2 (ATCC HB-8065)
T2 sequence (P00558 1-417): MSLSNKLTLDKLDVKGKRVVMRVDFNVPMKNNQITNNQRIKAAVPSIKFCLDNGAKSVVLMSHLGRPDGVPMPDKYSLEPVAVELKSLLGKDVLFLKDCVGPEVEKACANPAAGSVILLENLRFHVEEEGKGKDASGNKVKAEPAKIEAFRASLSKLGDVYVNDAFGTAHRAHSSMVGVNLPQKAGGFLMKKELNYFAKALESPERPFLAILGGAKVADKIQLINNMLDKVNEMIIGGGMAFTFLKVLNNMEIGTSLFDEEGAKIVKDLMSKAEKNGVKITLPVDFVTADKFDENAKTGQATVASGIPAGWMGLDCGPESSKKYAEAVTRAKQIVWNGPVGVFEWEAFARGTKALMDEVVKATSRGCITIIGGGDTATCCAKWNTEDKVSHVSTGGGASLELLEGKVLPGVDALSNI
Source text: as §1, §2, §3, §4

[4] = target: T3, ENO1 (Homo sapiens, UniProt P06733); assay: as above; assay type: cell-based; conditions: HepG2, Sorafenib 1 μM, 24 hours; relative to control, untreated sample
T3 construct: endogenous in cells; host or cells: HepG2 (ATCC HB-8065)
T3 sequence (P06733 whole entry): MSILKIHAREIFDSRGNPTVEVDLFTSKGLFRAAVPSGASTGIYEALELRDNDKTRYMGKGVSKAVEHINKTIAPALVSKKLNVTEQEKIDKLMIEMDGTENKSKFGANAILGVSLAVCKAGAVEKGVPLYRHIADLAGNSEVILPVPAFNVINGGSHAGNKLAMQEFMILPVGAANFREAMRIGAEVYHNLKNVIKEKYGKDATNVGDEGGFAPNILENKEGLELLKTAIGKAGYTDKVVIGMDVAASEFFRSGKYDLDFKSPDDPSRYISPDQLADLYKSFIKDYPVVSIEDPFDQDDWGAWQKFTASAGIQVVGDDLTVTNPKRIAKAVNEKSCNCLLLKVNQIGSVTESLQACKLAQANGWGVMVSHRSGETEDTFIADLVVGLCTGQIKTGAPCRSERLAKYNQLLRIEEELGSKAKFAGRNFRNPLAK
Source text: as §1, §2, §3, §4

[5] = system: LDHA; assay: Protein expression (quantitative proteomics) in HepG2; assay type: cell-based, Homo sapiens; conditions: HepG2, Sorafenib 1 μM, 24 hours
Protocol: as §1
The cells were cultured according to the following protocol. Day 1: HepG2/Hep3B—seed 3.2×10^6 cells in T-75 culture flasks; 7.4×10^6 cells in T-175 culture flasks; or 9.5×10^6 cells in T-225 culture flasks. THLE-2—seed 1.3×10^6 cells in T-75 culture flasks. Day 2: 16-24 hours later, at 50-70% confluence—add treatment. Control: DMSO at final concentration of 0.01%. EGF: 500 ng/mL in 10 mM acetic acid. Sorafenib: 1 μM at 0.1% volume in DMSO. Day 3: 24 hours after treatment, harvest cells by trypsinization. Wash pellets 2× with PBS before freezing.
Thus, the phospho proteome affords an additional layer of information that can be used for elucidating the complex relationship between the effect of an extracellular signal (e.g., drug molecule) on kinase activity and total cellular protein, thereby facilitating the identification of disease treatment targets, as well as diagnostic/prognostic markers associated with disease.

Chain of FASN (P19096 whole entry): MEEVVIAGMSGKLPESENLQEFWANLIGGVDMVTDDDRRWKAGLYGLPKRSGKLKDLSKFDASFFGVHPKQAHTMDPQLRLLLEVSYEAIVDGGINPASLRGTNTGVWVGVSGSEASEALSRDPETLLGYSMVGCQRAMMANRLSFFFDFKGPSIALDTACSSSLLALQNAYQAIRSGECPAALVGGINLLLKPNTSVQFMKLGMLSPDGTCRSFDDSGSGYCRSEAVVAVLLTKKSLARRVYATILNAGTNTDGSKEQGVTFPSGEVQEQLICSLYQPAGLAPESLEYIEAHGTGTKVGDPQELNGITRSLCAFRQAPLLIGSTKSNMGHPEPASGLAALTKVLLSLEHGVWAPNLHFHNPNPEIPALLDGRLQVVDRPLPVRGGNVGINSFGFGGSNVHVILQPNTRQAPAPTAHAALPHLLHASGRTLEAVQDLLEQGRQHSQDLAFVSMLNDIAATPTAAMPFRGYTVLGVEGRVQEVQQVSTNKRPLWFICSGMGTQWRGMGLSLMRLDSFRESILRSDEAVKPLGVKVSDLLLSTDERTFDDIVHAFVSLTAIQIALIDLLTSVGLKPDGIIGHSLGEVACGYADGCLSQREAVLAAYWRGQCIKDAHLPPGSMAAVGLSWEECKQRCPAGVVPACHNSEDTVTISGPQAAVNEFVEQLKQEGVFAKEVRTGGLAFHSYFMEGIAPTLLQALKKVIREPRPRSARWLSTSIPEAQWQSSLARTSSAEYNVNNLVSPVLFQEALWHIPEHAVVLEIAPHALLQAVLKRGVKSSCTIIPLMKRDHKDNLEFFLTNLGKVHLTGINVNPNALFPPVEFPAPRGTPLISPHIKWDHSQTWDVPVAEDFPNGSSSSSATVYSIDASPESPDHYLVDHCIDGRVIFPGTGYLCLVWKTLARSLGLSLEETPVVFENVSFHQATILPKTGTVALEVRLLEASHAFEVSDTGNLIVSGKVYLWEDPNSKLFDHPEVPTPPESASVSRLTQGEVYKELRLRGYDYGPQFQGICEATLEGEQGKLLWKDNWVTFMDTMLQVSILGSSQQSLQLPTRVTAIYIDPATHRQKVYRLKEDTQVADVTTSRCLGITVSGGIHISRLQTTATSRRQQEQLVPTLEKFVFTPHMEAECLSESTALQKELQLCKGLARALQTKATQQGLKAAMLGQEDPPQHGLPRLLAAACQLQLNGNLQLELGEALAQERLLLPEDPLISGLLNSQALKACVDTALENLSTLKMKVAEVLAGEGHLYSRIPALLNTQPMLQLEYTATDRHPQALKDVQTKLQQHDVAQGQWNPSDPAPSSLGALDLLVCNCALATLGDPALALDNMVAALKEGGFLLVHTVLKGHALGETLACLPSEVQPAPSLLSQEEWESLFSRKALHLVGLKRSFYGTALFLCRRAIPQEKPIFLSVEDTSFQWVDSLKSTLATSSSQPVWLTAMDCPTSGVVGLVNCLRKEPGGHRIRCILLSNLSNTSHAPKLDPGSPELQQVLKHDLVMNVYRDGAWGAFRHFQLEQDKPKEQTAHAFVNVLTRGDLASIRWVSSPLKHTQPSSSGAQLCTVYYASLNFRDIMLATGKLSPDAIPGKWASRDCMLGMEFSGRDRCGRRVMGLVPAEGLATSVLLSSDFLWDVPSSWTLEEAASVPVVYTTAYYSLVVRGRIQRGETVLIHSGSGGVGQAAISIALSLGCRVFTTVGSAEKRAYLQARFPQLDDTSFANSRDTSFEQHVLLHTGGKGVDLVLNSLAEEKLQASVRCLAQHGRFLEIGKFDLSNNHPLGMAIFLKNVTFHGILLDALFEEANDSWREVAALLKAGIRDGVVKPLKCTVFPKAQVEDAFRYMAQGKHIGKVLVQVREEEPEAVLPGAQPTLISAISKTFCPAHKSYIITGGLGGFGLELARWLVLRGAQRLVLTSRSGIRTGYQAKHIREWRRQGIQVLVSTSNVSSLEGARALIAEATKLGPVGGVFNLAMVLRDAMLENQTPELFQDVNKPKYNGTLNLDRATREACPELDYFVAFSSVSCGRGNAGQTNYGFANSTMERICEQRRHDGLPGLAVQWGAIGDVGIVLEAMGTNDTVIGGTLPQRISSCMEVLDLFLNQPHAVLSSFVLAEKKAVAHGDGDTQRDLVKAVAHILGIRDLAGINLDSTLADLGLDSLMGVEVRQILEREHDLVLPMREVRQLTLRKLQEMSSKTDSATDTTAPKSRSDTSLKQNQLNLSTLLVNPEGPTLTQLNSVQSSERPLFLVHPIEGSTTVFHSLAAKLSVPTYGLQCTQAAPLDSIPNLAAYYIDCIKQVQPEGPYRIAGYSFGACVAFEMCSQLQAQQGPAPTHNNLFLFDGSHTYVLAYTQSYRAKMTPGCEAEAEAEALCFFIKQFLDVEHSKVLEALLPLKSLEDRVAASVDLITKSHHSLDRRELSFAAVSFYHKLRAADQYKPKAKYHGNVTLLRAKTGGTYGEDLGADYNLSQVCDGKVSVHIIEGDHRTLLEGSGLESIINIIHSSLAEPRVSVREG

| Compound | food intake [1] | weight loss [1] | LDHA activity [2] | PGK1 activity [3] | ENO1 activity [4] | LDHA protein expression [5] |
| --- | --- | --- | --- | --- | --- | --- |
| C/C=C/C/C=C/CCC(=O)[C@H]1O[C@H]1C(N)=O [Cerulenin] | reducing food intake | weight loss | – | – | – | – |
| C=C1C(=O)OC(CCCCCCCC)C1C(=O)O (centres unmarked) [C75] | reducing food intake | weight loss | – | – | – | – |
| CNC(=O)c1cc(Oc2ccc(NC(=O)Nc3ccc(Cl)c(C(F)(F)F)c3)cc2)ccn1 [Sorafenib] | – | – | significant decrease; also recorded: downregulating | significant decrease; also recorded: downregulating | significant decrease; also recorded: downregulating | upregulation |
